Assay results: patent US20050009924A1 (priority 2003, published 2005)

Tests used:
[1] = tested on: transcriptional activity of hTERT; assay: SEAP reporter assay of hTERT expression, PhTERT-SEAP (H1299); format: cell-based, human
Procedure, shortened: (§1)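 Read-out: rate of absorbance rise at 405 nm from p-nitrophenyl phosphate (12 mM final) hydrolysis by secreted alkaline phosphatase in heat-treated (65° C, 10 min) culture medium. Drugs at varying amounts were applied for 24 h after a 24 h pre-culture at 37° C.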

[2] = MTT relative viability, PhTERT-SEAP (H1299) cells; details: human
Procedure: The tetrazolium reagent (MTT; 3-(4,5-di-methylthiazol)-2,5-diphenyl tetrazolium bromide, USB) was designed to yield a colored formazan upon metabolic reduction by viable cells. Approximately […] cells were plated onto each well of a 96-well plate and incubated in 5% CO2 at 37° C. for 24 h. To assess the in vitro cytotoxicity, each compound was dissolved in DMSO and prepared immediately before the experiments and was diluted into the complete medium before addition to cell cultures. Test compounds were then added to the culture medium for designated various concentrations. After 48 h, an amount of 25 μL of MTT was added to each well, and the samples were incubated at 37° C. for 4 h. A 100 μL solution of lysis buffer containing 20% SDS and 50% N,N-dimethylformamide was added to each well and incubated at 37° C. for another 16 h. The absorbency at 550 nm was measured using an ELISA reader.
Non small lung cancer cells H1299 (telomerase positive) were grown in RPMI 1640 media supplemented with 10% fetal bovine serum, 100 units/mL penicillin and 100 mg/mL streptomycin in a humidified atmosphere with 5% CO2 at 37° C. The hTERT immortalized hTERT-BJ1 (BD Biosciences Clontech)^39 were grown in DMEM media supplemented with 10% fetal calf serum, 100 units/mL penicillin and 100 mg/mL streptomycin, 1 mM sodium pyruvate, and 4 mM I-arginine in a humidified atmosphere with 5% CO2 at 37° C. Culture media were changed every 3 days. […] The stable clones derived from H1299 or hTERT-BJ1 were cultured using conditions that are similar to their parental cells.

[3] = tested on: transcriptional activity of hTERT; assay: SEAP reporter assay of hTERT expression, PhTERT-SEAP (hTERT-BJ1); format: cell-based, human
Procedure, shortened: as §1

human hepatoma G2 cells = assay: Cytotoxicity assay (XTT colorimetric), Hep G2; format: cell-based; details: Homo sapiens, HepG2; 48 h of drug exposure
[4] = MTT relative viability, PhTERT-SEAP (hTERT-BJ1) cells; details: human
[5] = tested on: hepatitis B virus transfected hepatoma cell lines, HepG 2.2.15 cells; assay: Cytotoxicity assay, 2.2.15 cells; format: cell-based, human; details: Homo sapiens, HepG2.2.15; 48 h of drug exposure
rat glioma C6 cells = assay: Cytotoxicity assay (XTT colorimetric), C6 cells; format: cell-based; details: Rattus norvegicus, C6; 48 h of drug exposure
[6] = Homo sapiens, NCI-H1299, hTERT-H1299, read-out: Relative SEAP activity (%)
[7] = Homo sapiens, hTERT-BJ1, read-out: Relative SEAP activity (%)
[8] = hTERT-BJ1 cells stably transfected with PhTERT-SEAP reporter
[9] = hTERT-BJ1 cells, stable PhTERT-SEAP reporter clone

Structure (SMILES): CCNc1cccc2c1C(=O)c1cccc(NCC)c1C2=O [IVa, 1,5-Bis(ethylamino)anthraquinone]
- activity at 3.3 µM ([1]; Homo sapiens, NCI-H1299, 3.3 μM, hTERT-H1299, read-out: Relative SEAP activity (%)): 108 ± 6.3%
- activity at 33 µM ([1]; Homo sapiens, NCI-H1299, 33 μM, hTERT-H1299, read-out: Relative SEAP activity (%)): 101 ± 6.8%
- activity at 339 µM ([1]; Homo sapiens, NCI-H1299, 339 μM, hTERT-H1299, read-out: Relative SEAP activity (%)): 95 ± 11%
- viability at 48 h, 3.3 µM [2]: 106 ± 7.4%
- viability at 48 h, 33 µM [2]: 104 ± 3.7%
- viability at 48 h, 339 µM [2]: 103 ± 6.4%
- activity at 3.3 µM ([3]; Homo sapiens, 3.3 μM, hTERT-BJ1, read-out: Relative SEAP activity (%)): 94 ± 17.4%
- activity at 33 µM ([3]; Homo sapiens, 33 μM, hTERT-BJ1, read-out: Relative SEAP activity (%)): 96 ± 8.5%
- activity at 339 µM ([3]; Homo sapiens, 339 μM, hTERT-BJ1, read-out: Relative SEAP activity (%)): 66 ± 11.8%
- IC50 (human hepatoma G2 cells): > 20 µM
- viability at 48 h, 3.3 µM [4]: 100 ± 4.8%
- viability at 48 h, 33 µM [4]: 97 ± 1%
- viability at 48 h, 339 µM ([4]; hTERT-BJ1 cells): 99 ± 3.2%
- melting point: 193 to 195 °C
- IC50 [5]: > 20 µM
- IC50 (rat glioma C6 cells): > 20 µM

Structure (SMILES): CC(C)Nc1cccc2c1C(=O)c1cccc(NC(C)C)c1C2=O [IVc, 1,5-Bis(isopropylamino)anthraquinone]
- activity at 3.1 µM [1, 6]: 94 ± 4.1%
- activity at 31 µM [1, 6]: 93 ± 2%
- activity at 310 µM [1, 6]: 66 ± 4.7%
- viability at 48 h, 3.1 µM [2]: 114 ± 7.6%
- viability at 48 h, 31 µM [2]: 111 ± 4.7%
- viability at 48 h, 310 µM [2]: 50 ± 7.5%
- activity at 3.1 µM [3, 7]: 32 ± 18.3%
- activity at 31 µM [3, 7]: 23 ± 20.5%
- activity at 310 µM [3, 7]: -2%
- IC50 (human hepatoma G2 cells): 7.64 ± 2.38 µM
- viability at 48 h, 3.1 µM ([4]; hTERT-BJ1 cells): 101 ± 4.5%
- viability at 48 h, 31 µM ([4]; hTERT-BJ1 cells): 93 ± 6.5%
- viability at 48 h, 310 µM ([4]; hTERT-BJ1 cells): 98 ± 12.9%
- melting point: 170 to 172 °C
- IC50 [5]: 19 µM
- IC50 (rat glioma C6 cells): > 20 µM

Structure (SMILES): CCCNc1cccc2c1C(=O)c1cccc(NCCC)c1C2=O [IVf, 1,5-Bis(propylamino)anthraquinone]
- activity at 3.1 µM [1, 6]: 101 ± 15.3%
- activity at 31 µM [1, 6]: 100 ± 5.6%
- activity at 310 µM [1, 6]: 89 ± 8.3%
- viability at 48 h, 3.1 µM [2]: 99 ± 7.6%
- viability at 48 h, 31 µM [2]: 98 ± 5.8%
- viability at 48 h, 310 µM [2]: 46 ± 9.5%
- activity at 3.1 µM [3, 7]: 18 ± 16.7%
- activity at 31 µM [3, 7]: 19 ± 24.6%
- activity at 310 µM [3, 7]: -7%
- IC50 (human hepatoma G2 cells): 1.74 ± 0.14 µM
- viability at 48 h, 3.1 µM ([4]; hTERT-BJ1 cells): 97 ± 5.6%
- viability at 48 h, 31 µM ([4]; hTERT-BJ1 cells): 93 ± 8.9%
- viability at 48 h, 310 µM ([4]; hTERT-BJ1 cells): 42 ± 8.1%
- melting point: 153 to 154 °C
- IC50 [5]: 1.94 µM
- IC50 (rat glioma C6 cells): 16 ± 0.68 µM

Structure (SMILES): O=C1c2cccc(NCCc3ccccc3)c2C(=O)c2cccc(NCCc3ccccc3)c21 [IVs, 1,5-Bis(phenylethylamino)-anthraquinone]
- activity at 2.2 µM ([1]; Homo sapiens, NCI-H1299, 2.2 μM, hTERT-H1299, read-out: Relative SEAP activity (%)): 105 ± 3%
- activity at 22 µM ([1]; Homo sapiens, NCI-H1299, 22 μM, hTERT-H1299, read-out: Relative SEAP activity (%)): 103 ± 9.5%
- activity at 223 µM ([1]; Homo sapiens, NCI-H1299, 223 μM, hTERT-H1299, read-out: Relative SEAP activity (%)): 96 ± 2.9%
- viability at 48 h, 2.2 µM [2]: 94 ± 5.2%
- viability at 48 h, 22 µM [2]: 97 ± 3.2%
- viability at 48 h, 223 µM [2]: 77 ± 4.2%
- activity at 2.2 µM ([3]; Homo sapiens, 2.2 μM, hTERT-BJ1, read-out: Relative SEAP activity (%)): 115 ± 12.9%
- activity at 22 µM ([3]; Homo sapiens, 22 μM, hTERT-BJ1, read-out: Relative SEAP activity (%)): 103 ± 12.3%
- activity at 223 µM ([3]; Homo sapiens, 223 μM, hTERT-BJ1, read-out: Relative SEAP activity (%)): 133 ± 23.8%
- IC50 (human hepatoma G2 cells): > 20 µM
- viability at 48 h, 2.2 µM [4]: 97 ± 4%
- viability at 48 h, 22 µM [4]: 92 ± 1%
- viability at 48 h, 223 µM [4]: 81 ± 4.7%
- melting point: 205 to 207 °C
- IC50 [5]: > 20 µM
- IC50 (rat glioma C6 cells): > 20 µM

Structure (SMILES): O=C(CCl)Nc1ccc(NC(=O)CCl)c2c1C(=O)c1ccccc1C2=O [VI1, 1,4-Bis(chloroacetamido)-9,10-anthracenedione]
- SEAP/vibility ([1]; 2.5 μM, PhTERT-SEAP(hTERT-H1299)): 0.98
- SEAP/vibility ([1]; 25 μM, PhTERT-SEAP(hTERT-H1299)): 1.14
- SEAP/vibility ([1]; 255 μM, PhTERT-SEAP(hTERT-H1299)): 4.66
- activity at 2.5 µM ([1]; Homo sapiens, NCI-H1299, 2.5 μM, PhTERT-SEAP(hTERT-H1299), read-out: Relative SEAP activity (%)): 102 ± 5.3%
- activity at 25 µM ([1]; Homo sapiens, NCI-H1299, 25 μM, PhTERT-SEAP(hTERT-H1299), read-out: Relative SEAP activity (%)): 110 ± 8.8%
- activity at 255 µM ([1]; Homo sapiens, NCI-H1299, 255 μM, PhTERT-SEAP(hTERT-H1299), read-out: Relative SEAP activity (%)): 97 ± 7.1%
- viability at 48 h, 2.5 µM [2]: 104 ± 5.5%
- viability at 48 h, 25 µM [2]: 96 ± 3.8%
- viability at 48 h, 255 µM [2]: 21 ± 1.5%
- SEAP/vibility ([3]; 2.5 μM, PhTERT-SEAP (hTERT-BJ1)): 1.23
- SEAP/vibility ([3]; 25 μM, PhTERT-SEAP (hTERT-BJ1)): 1.53
- SEAP/vibility ([3]; 255 μM, PhTERT-SEAP (hTERT-BJ1)): 2.76
- activity at 2.5 µM ([3]; Homo sapiens, 2.5 μM, PhTERT-SEAP (hTERT-BJ1), read-out: Relative SEAP activity (%)): 123 ± 16.8%
- activity at 25 µM ([3]; Homo sapiens, 25 μM, PhTERT-SEAP (hTERT-BJ1), read-out: Relative SEAP activity (%)): 129 ± 17.7%
- activity at 255 µM ([3]; Homo sapiens, 255 μM, PhTERT-SEAP (hTERT-BJ1), read-out: Relative SEAP activity (%)): 121 ± 10.9%
- IC50 (human hepatoma G2 cells): > 20 µM
- viability at 48 h, 2.5 µM [4, 8]: 101 ± 2.7%
- viability at 48 h, 25 µM [4, 8]: 84 ± 6.3%
- viability at 48 h, 255 µM [4, 9]: 44 ± 4.7%
- melting point: 285 to 287 °C
- IC50 [5]: > 20 µM
- IC50 (rat glioma C6 cells): > 20 µM

Structure (SMILES): O=C(CCCl)Nc1ccc(NC(=O)CCCl)c2c1C(=O)c1ccccc1C2=O [VI7, 1,4-Bis(3-chloropropionamido)-9,10-anthracenedione]
- SEAP/vibility ([1]; 2.3 μM, PhTERT-SEAP(hTERT-H1299)): 0.88
- SEAP/vibility ([1]; 23 μM, PhTERT-SEAP(hTERT-H1299)): 1.28
- SEAP/vibility ([1]; 238 μM, PhTERT-SEAP(hTERT-H1299)): 2.30
- activity at 2.3 µM ([1]; Homo sapiens, NCI-H1299, 2.3 μM, PhTERT-SEAP(hTERT-H1299), read-out: Relative SEAP activity (%)): 87 ± 2.3%
- activity at 23 µM ([1]; Homo sapiens, NCI-H1299, 23 μM, PhTERT-SEAP(hTERT-H1299), read-out: Relative SEAP activity (%)): 87 ± 3.1%
- activity at 238 µM ([1]; Homo sapiens, NCI-H1299, 238 μM, PhTERT-SEAP(hTERT-H1299), read-out: Relative SEAP activity (%)): 68 ± 5.3%
- viability at 48 h, 2.3 µM [2]: 99 ± 6%
- viability at 48 h, 23 µM [2]: 68 ± 2.4%
- viability at 48 h, 238 µM [2]: 30 ± 3.8%
- SEAP/vibility ([3]; 2.3 μM, PhTERT-SEAP (hTERT-BJ1)): 0.36
- SEAP/vibility ([3]; 23 μM, PhTERT-SEAP (hTERT-BJ1)): 0.48
- SEAP/vibility ([3]; 238 μM, PhTERT-SEAP (hTERT-BJ1)): 0.23
- activity at 2.3 µM ([3]; Homo sapiens, 2.3 μM, PhTERT-SEAP (hTERT-BJ1), read-out: Relative SEAP activity (%)): 36 ± 12.1%
- activity at 23 µM ([3]; Homo sapiens, 23 μM, PhTERT-SEAP (hTERT-BJ1), read-out: Relative SEAP activity (%)): 40 ± 10.8%
- activity at 238 µM ([3]; Homo sapiens, 238 μM, PhTERT-SEAP (hTERT-BJ1), read-out: Relative SEAP activity (%)): 14 ± 11.8%
- IC50 (human hepatoma G2 cells): > 20 µM
- viability at 48 h, 2.3 µM [4, 9]: 102 ± 4.1%
- viability at 48 h, 23 µM [4, 9]: 82 ± 8.2%
- viability at 48 h, 238 µM [4, 9]: 60 ± 2.5%
- melting point: 230 to 231 °C
- IC50 [5]: > 20 µM
- IC50 (rat glioma C6 cells): > 20 µM
